The values that follow come from patent publication US3956333A, “1(Or 3)-perfluoroalkyl-3,4-dihydro-2(1H)-isoquinolinecarbonitriles” (Sterling Drug Inc., priority 1975, dated 1976).

Values after ≈ are worked out from the molar mass of the structure shown.

In assay [1] the test system is Platelet aggregation induced by collagen. The note with it: Oryctolagus cuniculus, read-out: % Inhibition of platelet aggregation induced by collagen.
Assay [2] has as its system Platelet aggregation induced by ADP. As to conditions: Oryctolagus cuniculus, read-out: % Inhibition of platelet aggregation induced by ADP.
The next assay deals with Staphylococcus aureus. Description: Antibacterial activity, standard serial dilution technique (MIC). The format is cell-based. As to conditions: read-out: minimal (bacteriostatic) inhibitory concentration (MIC). The source says:
The antibacterial activities for the compounds of formulas I and II and the compound of formula V where R is pentafluoroethyl were established using standard serial dilution techniques as described by Goss and Cimijotti, Applied Microbiology 16, 1414 (1968).

Assay [3] deals with platelet aggregate (thrombus). Briefly: In vivo inhibition of platelet aggregation, modified extracorporeal shunt technique (thrombus deposit weight). Also noted: species or system New Zealand rabbits. As to conditions: single dose, 3 hours after medication; for % Inhibition of platelet aggregation (in vivo): P < 0.0005; for x Deposit Weight ± s.d.: mean. The source says:
The antithrombotic or platelet aggregation inhibitory effect of the compounds of formulas I and II was further determined by a modified extracorporeal shunt technique in rabbits. Rowntree and Shinoya [J. Exp. Med. 46, 7 (1927)] described a method of extracorporeal circulation for the observation of thrombus formation. Downie et al. [Circulation Res. 12, 441 (1963)] modified this technique in order to study the effects of various chemicals upon the platelet aggregates formed in such a system. The following procedure, a further modification of said technique, was used to determine the antithrombotic activity of the compounds of the invention.
New Zealand rabbits weighing 1.5 to 3.0 kg. each were used for these studies. All animals were dosed orally by stomach tube with the test compound at a given time, e.g., 3, 8, 12, 24, etc. hours, prior to testing the blood samples. Control animals (from 3 to 5 in number for each dose level of compound) were given the vehicle used for solubilizing the compounds tested. All animals were anesthetized with sodium pentobarbital (Pentobrocanal) intravenously, 25-32 mg./kg., and secured to a dissecting board. The right femoral artery was cannulated and connected to a Statham pressure transducer (P 23AC) for continuously measuring arterial blood pressure which was recorded by means of a Grass (Model 7) polygraph.
A longitudinal incision was made in the midcervical region. The jugular vein and the carotid artery on one side were isolated and cannulated with appropriate size catheters filled with saline solution, which were in turn connected via Y-shaped polypropylene connectors establishing the shunt.
The components of the shunt were thoroughly siliconized except for the Y-connector on the arterial side. This connector is weighed prior to running the experiment. A blood sample was withdrawn from the femoral artery to provide a control platelet count. The animal was allowed 10-12 minutes to attain a relatively stable blood pressure level after which the shunt was opened and the blood permitted to flow. The time from the first appearance of blood, in the arterial catheter until its re-entry into the body, via the venous catheter, was measured and recorded, as flow time, which was used to determine the initial rate of flow.
The shunt remained open for a period of twenty minutes. One minute before the end, the femoral catheter was removed from the transducer and a second blood sample was taken. Duplicate platelet counts were made for each sample of blood. The shunt was removed from the animal by pulling out both catheters, arterial and venous, arterial first. The Y-connectors were washed with 10 cc. of saline solution. The arterial Y-connector was separated and dried in an oven overnight at 40°C., then reweighed. The initial weight of the connector was subtracted from the final weight, and the difference is considered to be the mass of the platelet aggregate (thrombus).
(single dose medication), the blood samples having been tested three hours after medication: […]

Take `NC(=NO)N1CCc2ccccc2C1C(F)(F)C(F)(F)C(F)(F)F` (stereo not shown) [Example 2E]: the inhibition at 1000 µM in assay [1] stood at 94.2%; in assay [2] it was 8.3%.
With `NC(=NO)N1Cc2ccccc2CC1C(F)(F)F` (stereo not shown) [Example 3E], in assay [1], the inhibition at 300 µM was 67.4%. Also, the inhibition at 3000 µM in assay [2] was found to be 64.4%.
Turning to `FC(F)(F)C(F)(F)C1NCCc2ccccc21` (stereo not shown) [1,2,3,4-tetrahydro-1-(pentafluoroethyl)isoquinoline], in the assay with Staphylococcus aureus, the MIC is about 500 µg/mL (≈ 1990 µM).
As for `Cl.NC(=NO)N1CCc2ccccc2C1C(F)(F)C(F)(F)F` (stereo not shown) [Example 1E], the inhibition at 100 µM in assay [1] is 24.3%. The “% Inhibition of platelet aggregation (in vivo)” value in assay [3] (10 mg/kg oral) is given as 17%; in assay [3] (25 mg/kg oral) it was 38%; in assay [3] (50 mg/kg oral), 41%. The “x Deposit Weight ± s.d.” value in assay [3] (10 mg/kg oral) was determined as 1.54 ± 0.09; in assay [3] (25 mg/kg oral), 1.16 ± 0.05; in assay [3] (50 mg/kg oral) it was 1.08 ± 0.08. For the same compound, the inhibition at 3000 µM in assay [2] was 74.2%.
